Measured values published in ChEMBL document CHEMBL1201862, “PubChem BioAssay data set” (2004).
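Following 48 hours of exposure in 96-well plates, responses at five concentrations were used to interpolate endpoints linearly. GI50 marks 50% less growth.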 Active and inactive are the calls of the source. Rule as the data show it: active = GI50 up to about 1.1 µM and inactive = higher.

What was measured:
Assay in all cases: NCI tumour cell line growth inhibition, 48 h
SR = system: SR
SW-620 = system: SW-620
OVCAR-8 = system: OVCAR-8
HOP-92 = system: HOP-92
Malme-3M = system: Malme-3M
NCI-H23 = system: NCI-H23
KM-20L2 = system: KM-20L2
LOX IMVI = system: LOX IMVI
TK-10 = system: TK-10
M14 = system: M14
XF498 = system: XF498
LXFL 529 = system: LXFL 529
HCC 2998 = system: HCC 2998
ACHN = system: ACHN
SNB-78 = system: SNB-78
UO-31 = system: UO-31
NCI/ADR-RES = system: NCI/ADR-RES
A498 = system: A498
MCF7 = system: MCF7
MDA-N = system: MDA-N

Measured: GI50

CCCCN1C=CN2c3nc4cc(C)c(C)cc4n3C(C(=O)OC)=C(C(=O)OC)C12 (stereo not drawn)
inactive: SR > 100 µM | SW-620 > 100 µM | OVCAR-8 > 100 µM | HOP-92 > 100 µM | Malme-3M > 100 µM | NCI-H23 > 100 µM | KM-20L2 > 100 µM | LOX IMVI > 100 µM | TK-10 > 100 µM | M14 > 100 µM | XF498 > 100 µM | LXFL 529 > 100 µM | HCC 2998 > 100 µM | ACHN > 100 µM | SNB-78 > 100 µM | UO-31 > 100 µM

CC(C)=CCc1c(O)ccc2c1OC1c3ccc(O)c(CC=C(C)C)c3OCC21 (stereo not drawn)
inactive: SW-620 6.79 µM | NCI/ADR-RES 8.09 µM | OVCAR-8 8.22 µM | HOP-92 > 100 µM | Malme-3M 17 µM | NCI-H23 > 38.8 µM | A498 11.9 µM | KM-20L2 18.7 µM | LOX IMVI 6.81 µM | XF498 17.8 µM | HCC 2998 13.2 µM | MCF7 8.89 µM | SNB-78 12.1 µM | UO-31 11.7 µM

COC(=O)C1=C(OC(=O)/C(=C/c2ccc(Cl)cc2)c2ccc(Cl)cc2)C(C(=O)OC)[C@]2(O)[C@@H](C(=O)OC)[C@H]1C[C@@H](c1ccccc1)[C@@H]2C(=O)OC (stereo partly drawn)
inactive: SW-620 > 100 µM | NCI/ADR-RES > 100 µM | OVCAR-8 > 100 µM | NCI-H23 > 100 µM | MDA-N > 100 µM | LOX IMVI > 100 µM | TK-10 > 100 µM | M14 30.1 µM | ACHN > 100 µM

COc1cc(/C=C(\C#N)C(N)=O)cc(Br)c1O
inactive: SW-620 > 100 µM | NCI/ADR-RES > 100 µM | OVCAR-8 > 100 µM | Malme-3M > 100 µM | KM-20L2 > 100 µM | LOX IMVI 29.7 µM | XF498 23.2 µM | HCC 2998 > 100 µM | MCF7 95.1 µM | SNB-78 > 100 µM | UO-31 96.6 µM

Cc1c(C2=NN=C(/N=N/c3c(O)cccc3O)/C2=C/c2ccccc2)c(=O)n(-c2ccccc2)n1C
inactive: SW-620 > 100 µM | NCI/ADR-RES > 100 µM | OVCAR-8 > 100 µM | HOP-92 > 100 µM | Malme-3M > 100 µM | NCI-H23 > 100 µM | A498 > 100 µM | KM-20L2 > 100 µM | LOX IMVI > 100 µM | XF498 > 100 µM | HCC 2998 > 100 µM | MCF7 > 100 µM | SNB-78 > 100 µM | UO-31 > 100 µM

O=C1c2cccc3c2C(=O)c2c(cccc21)OCCOCCOCCOCCO3
inactive: SR 14.2 µM | SW-620 > 100 µM | OVCAR-8 > 100 µM | Malme-3M > 100 µM | NCI-H23 > 100 µM | KM-20L2 > 100 µM | LOX IMVI 78.2 µM | TK-10 > 100 µM | M14 > 100 µM | LXFL 529 > 100 µM | HCC 2998 > 100 µM | ACHN 78.5 µM | SNB-78 > 100 µM | UO-31 30.9 µM

CC1(CO)C(O)CCC2(C)C1CCC1CC3CC12CCC3(O)CO (stereo not drawn)
inactive: SW-620 9.75 µM | NCI/ADR-RES 6.67 µM | OVCAR-8 4.84 µM | HOP-92 24.8 µM | Malme-3M > 76.2 µM | NCI-H23 4.91 µM | A498 7.6 µM | LOX IMVI 4.72 µM | XF498 64.7 µM | HCC 2998 12.1 µM | MCF7 5.04 µM | SNB-78 > 100 µM | UO-31 25.3 µM

CCCCCCCCCCCCCCCCCC(=O)OCC1OC(OC)C(NC(=O)N(CCCl)N=O)C(O)C1O (stereo not drawn)
inactive: SR 9.04 µM | SW-620 14.1 µM | OVCAR-8 33.5 µM | Malme-3M 26.1 µM | NCI-H23 16.4 µM | KM-20L2 > 10 µM | LOX IMVI 13.6 µM | TK-10 38.3 µM | M14 27.8 µM | XF498 20.7 µM | LXFL 529 17.3 µM | HCC 2998 29 µM | ACHN 15.7 µM | SNB-78 40.4 µM | UO-31 24.3 µM

C/C=C/c1cc(=O)c([C@@H]2OC(=O)c3cc(OC)cc(OC)c32)co1 [VERMISTATIN]
inactive: SR 27.6 µM | SW-620 55.5 µM | OVCAR-8 46.8 µM | HOP-92 49 µM | NCI-H23 29.6 µM | KM-20L2 67.5 µM | TK-10 57.5 µM | M14 58.7 µM | LXFL 529 24.5 µM | HCC 2998 26 µM | ACHN 45.3 µM | UO-31 24.4 µM
